These results are taken from patent US7012093B2, “Multiple fluorescent natural dye compound from a marine organism and method of use thereof” (Council of Scientific & Industrial Research, priority 2001, dated 2006).

“Also recorded” adds a separate entry of the source.

One data set has as its system E. coli (wild type). In words: Anti-microbial test (zone of inhibition, filter paper disk on seeded agar). Type of data set: cell-based. Particulars: 10 mg/ml of the sample soaked in filter paper disks, 37° C., 24 hours. How it is done:
In yet another embodiment, anti-microbial test of the compound cum dye is done. […] As the marine dye is, a phenolic compound and phenolic compounds are generally having Anti-microbial activity, the anti-microbial assay was performed with this compound and the zone of inhibition was observed. E. coli (wild type) culture was grown overnight in MacConkey's broth 50 ml in a conical flask (100 ml). Antibiotic assay agar medium was prepared and sterilized. It was then brought to a temperature of 50 degree centigrade and 1 ml of E. coli (wild type) culture was added to it. The culture was mixed with antibiotic assay agar medium and was allowed to solidify. 10 mg/ml of the sample was prepared and soaked in filter paper disks. It was then placed upon the said antibiotic assay agar medium seeded with E. coli. It was then incubated at 37° C. in an incubator for 24 hours.

The subject of the next data set is ticks/fleas of dogs. Nature of the data set: Veterinary remedy: killing ticks/fleas of dogs. Type of data set: in vivo, ticks and fleas. The source says: In yet another embodiment, the utility of the dye as a Veterinary remedy for ticks and fleas of pets is seen. The extract is used as veterinary remedy for killing ticks/fleas of dogs. 5×10^−6 concentration of dye in 1:200 dilutions killed ticks and fleas in less than 20 seconds. The extract was used as veterinary remedy for killing ticks/fleas of dogs. 5×10^−8 concentration of the purified compound cum dye killed ticks and fleas in less than 20 seconds.

For a further data set, the system named is ants. In words: Pesticidal effect (filter paper soaked in the dye). Type of data set: in vivo. As to conditions: filter paper soaked in the dye left on the workbench; next day full of dead ants. The source says:
In yet another embodiment, the pesticidal effect of the compound cum dye is noticed. […] The filter paper soaked in the dye was left unattended on the workbench. Next day it was noticed full of dead ants. […] The filter paper soaked in the dye was left unattended on the workbench. Next day it was noticed full of dead ants.

A short description of data set [1]: Solubility of the compound. Type of data set: physicochemical. As to conditions: for solubility in organic solvents: ethanol, methanol, acetone.
Data set [2] is described as follows: Stability check of the dye (temperature, shelf life, light). Type of data set: physicochemical. How it is done: (§1) The pure hydrogen form of the compound is having the pH of 2.8. The salt form of the compound is stable up to 300° C. without the change of physical and chemical characters. The compound in aqueous solution in a very diluted form (5×10^−6 concentration) is pale yellow in color with the naked eye and the concentrated solution is reddish brown in color.
The compound retained its stability for about a year without any contamination or chemical decay.

Data set [3] can be described thus: Stability of the compound cum dye at the sub zero temperatures. Type of data set: physicochemical. The source says:
In yet another embodiment stability of the compound cum Dye at the sub Zero temperatures is seen. The compound in its diluted form 5×10^−6 was taken in a microfuge tube and kept at −20 degree centigrade and seen in the frozen state under UV light.
The compound in its diluted form 5×10^−6 was taken in a microfuge tube and kept at −20 degree centigrade and seen in the frozen state under UV light.

Data set [4] can be described thus: pH of the compound and pH sensitivity of emissions. Type of data set: physicochemical. How it is done: as §1
The dye has a pH of 2.8 and their spectral emissions are not affected at different pH range i.e. from pH 2.8–8.0.

Data set [5] in a line: Biosurfactant nature (shaking of solutions). Type of data set: physicochemical. As to conditions: 0.001 mg–0.01 mg per ml solutions.

As to “Phenolic sulphated silicated polysaccharide [PSSP-1]”, the results for the zone of inhibition entry in the data set with E. coli (wild type) (listed as compound cum dye) and with E. coli (wild type) (listed as dye) were “zone of inhibition is observed” and “Zone of inhibition surrounding the filter disk was observed”, respectively. The “time to kill ticks and fleas” value with ticks/fleas of dogs (5×10^−6 concentration of dye in 1:200 dilutions) and in the data set on ticks/fleas of dogs (5×10^−8 concentration of the purified compound cum dye) was “less than 20 seconds” throughout. Moreover, the toxicity to insects result with ants is listed as “toxic to insects”. Besides, the “solubility in organic solvents” value in data set [1] is “insoluble in the organic solvents including ethanol, methanol and acetone”; in data set [1] (listed as dye), “insoluble in the organic solvents like ethanol, methanol and acetone”. Also, the figures for the solubility in water result in data set [1] and in data set [1] (listed as dye) were “soluble in water” and “more than the solubility characters of Fluorescein; also recorded: highly water-soluble”, respectively. Further, the “photolysis after light treatment” value in data set [2] (exposure to light, listed as dye) is on record as “does not undergo photolysis after exposure to light; also recorded: did not undergo photolysis after light treatment”. Also, in data set [2] (heating, fluorescent spectral properties unchanged), the “temperature up to which the dye is stable (no alteration of the spectral property)” value is “up to 300 degree Centigrade”. Besides, the “duration of retained stability without contamination or chemical decay” value is recorded as “about a year” in data set [2] (room temperature) and “above a year” in data set [2] (room temperature, listed as dye). The “persistence of fluorescence at the room temperature” value in data set [2] (room temperature) is recorded as “at least 1 year”. Moreover, the “fluorescence in the frozen state” value in data set [3] (diluted form 5×10^−6, −20 degree centigrade, under UV light) is listed as “persisted without any deterioration”. For the same substance, in data set [3] (frozen in the liquid nitrogen), the “fluorescence after freezing in liquid nitrogen” value is “remained unaffected”. For the same substance, in data set [4], the pH is reported as 2.8. Moreover, in data set [4] (pH 2.8–8.0), the “effect of pH on spectral emissions” value was “not affected”. In addition, the frothing on shaking entry is reported as “frothing was seen” in data set [5] and “frothing is seen” in data set [5] (listed as dye).
